{
  "source": "patent US6495588B2",
  "about": "“Scytonemin and methods of using thereof” (The Regents of the University of California, priority 2000, dated 2002)",
  "key": {"GST-PLK1": {"molecular_target": "T1, GST-PLK1 (Homo sapiens, UniProt P53350)", "T1 construct": "made in house", "T1 sequence (P53350 whole entry)": "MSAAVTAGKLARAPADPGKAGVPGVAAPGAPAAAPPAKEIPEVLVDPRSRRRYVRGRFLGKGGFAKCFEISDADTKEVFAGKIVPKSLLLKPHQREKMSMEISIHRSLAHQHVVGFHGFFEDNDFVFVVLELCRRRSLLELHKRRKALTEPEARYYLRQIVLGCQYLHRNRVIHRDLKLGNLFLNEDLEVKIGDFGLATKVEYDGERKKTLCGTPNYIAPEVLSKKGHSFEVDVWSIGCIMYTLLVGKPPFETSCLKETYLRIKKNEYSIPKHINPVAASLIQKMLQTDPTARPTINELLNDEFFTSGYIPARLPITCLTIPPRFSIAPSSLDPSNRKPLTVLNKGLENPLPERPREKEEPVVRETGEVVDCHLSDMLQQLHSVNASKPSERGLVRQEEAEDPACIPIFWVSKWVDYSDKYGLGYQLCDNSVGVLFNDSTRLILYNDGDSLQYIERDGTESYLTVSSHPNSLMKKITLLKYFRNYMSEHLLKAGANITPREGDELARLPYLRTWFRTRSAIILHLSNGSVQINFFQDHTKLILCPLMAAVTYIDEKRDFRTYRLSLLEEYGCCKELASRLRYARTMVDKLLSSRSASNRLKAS", "experiment": "GST-Plk kinase activity kinetic assay (phosphorylation of GST-cdc25C)", "type": "biochemical", "conditions": "for reduction of GST-PLK1 activity: preincubation 0-45 minutes; for Ki: 10-25 μM ATP, 2, 4, 6 μM SCY", "experimental": "GST-PLK1, and GST-cdc25C were synthesized as described in Roshak et al. (2000), which is herein incorporated by reference. GST-PLK1 and GST-cdc25C were purified to 20% and 60% purity as determined by SDS-PAGE analysis and Coomassie Blue staining. The remaining impurities were determined to be free GST.\nKinase reactions comprised 350 nM GST-cdc25C, 0.5 μCi [^33P]-γATP (NEN, Cambridge, Mass.), 10 μM unlabelled ATP (Sigma, St. Louis, Mo.), 20 nM GST-PLK1 in kinase reaction buffer comprising 20 mM HEPES (pH 7.4), 50 mM KCl, 10 mM MgCl2, 1 mM EGTA, 0.5 mM DTT. Enzyme and substrates were diluted individually in kinase buffer and the PLK1 solution was pre-activated by incubating at 37° C. for 1 hour prior to its addition to the assay as described in Roshak et al. (2000).\n50 μl reactions were conducted in 96 well polypropylene plates. First, 1 nM to 10 μM SCY dissolved in 100% DMSO was added, followed by the addition of enzyme and substrate to give a final concentration of 4% DMSO. The reactions were initiated by the addition of ATP. The reactions progressed for 60 minutes at 37° C., and were then stopped with 25 mM EDTA and 1 mM unlabeled ATP. The samples were transferred to 96 well 0.45 μm millipore filtration plates (Millipore, Bedford, Mass.), the proteins were precipitated with a 10% TCA, 5% sodium pyrophosphate solution (TCA-NaPP), and the plates were filtered using a Millipore microplate filtration unit (Millipore, Bedford, Mass.). The plates were washed twice with the TCA-NaPP solution, twice with 75 mM phosphoric acid, and twice with PBS. After drying at room temperature, scintillation fluid was added to the plate, and [^33P]-γATP incorporation was measured on a Packard Top-Count.\nAnalysis by autoradiography was performed as described in Roshak et al. (2000). Briefly, GST-PLK1 (20 nM/assay), […], 1 μCi [^32P]-γATP, and 350 nM GST-cdc25C were incubated in microcentrifuge tubes (50 μl/assay) for 60 minutes at 37° C. in the presence of 1 to 10 μM SCY and 10 μM hymenialdisine. The reactions were terminated with 25 mM EDTA, separated by SDS-PAGE and GST-cdc25C phosphorylation was visualized using Imagequest (Molecular Dynamics, Sunnyvale, Calif.). 10 μM hymenialdisine served as a positive control for each assay described above.\nTo determine whether SCY was acting as and ATP analogue, ATP competition assays were conducted as described above in the presence of increasing concentrations, 10, 15, 20, and 25 μM, of unlabeled ATP and three concentrations of SCY, 2, 4, and 6 μM SCY. The results were plotted using the Grafit statistical analysis program.\nTo ascertain if inhibition of GST-PLK1, activity by SCY is time dependent, 3 μM and 10 μM SCY were pre-incubated with both enzyme and substrate for 0, 15, 30, and 45 minutes at room temperature. At the end of the pre-incubation period, ATP was added to initiate the activity assay. […] GST-PLK1, activity was reduced by about 58% and about 93% after preincubation with 3 μM and 10 μM SCY, respectively, which is consistent with the levels shown in FIG. 3."}, "CDK1/cyclinB1": {"molecular_target": "T2, CDK1/cyclinB1 (Homo sapiens, UniProt P06493)", "T2 construct": "made in house", "T2 sequence (P06493 whole entry)": "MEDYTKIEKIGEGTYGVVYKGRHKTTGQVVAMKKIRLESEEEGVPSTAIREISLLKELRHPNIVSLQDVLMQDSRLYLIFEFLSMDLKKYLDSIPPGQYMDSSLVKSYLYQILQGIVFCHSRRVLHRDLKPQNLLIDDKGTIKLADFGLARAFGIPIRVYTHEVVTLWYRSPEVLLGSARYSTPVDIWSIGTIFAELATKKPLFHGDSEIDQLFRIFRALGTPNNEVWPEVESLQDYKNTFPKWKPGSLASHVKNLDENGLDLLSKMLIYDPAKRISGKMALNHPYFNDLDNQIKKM", "T2 sequence (P14635 whole entry partner)": "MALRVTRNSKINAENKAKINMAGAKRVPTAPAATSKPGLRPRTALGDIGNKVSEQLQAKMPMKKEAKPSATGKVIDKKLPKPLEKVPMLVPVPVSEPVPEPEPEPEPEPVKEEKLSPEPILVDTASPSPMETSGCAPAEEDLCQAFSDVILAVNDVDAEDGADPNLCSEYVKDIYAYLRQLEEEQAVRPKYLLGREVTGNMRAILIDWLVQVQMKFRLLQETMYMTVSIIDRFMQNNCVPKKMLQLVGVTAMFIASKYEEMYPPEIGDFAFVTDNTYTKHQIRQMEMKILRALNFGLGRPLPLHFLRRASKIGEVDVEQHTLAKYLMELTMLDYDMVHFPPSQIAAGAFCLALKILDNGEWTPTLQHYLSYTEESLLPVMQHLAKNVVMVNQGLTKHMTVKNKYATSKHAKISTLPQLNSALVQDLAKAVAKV", "experiment": "CDK1/cyclinB histone H1 phosphorylation assay", "type": "biochemical", "conditions": "0.1 μM ATP, histone H1 substrate", "experimental": "To determine the effect of SCY on CDK1/cyclinB1 kinase activity, the following assay was conducted. Baculovirus vectors expressing CDK1 and cyclinB1, obtained from Dr. David Morgan of the University of California San Francisco, were expressed and purified by the method described in Desai, et al. (1992) Mol. Cell Biol. 3:571-582, which is herein incorporated by reference, to 80% purity as determined by SDS-PAGE analysis and Coomassie Blue staining. CDK1/cyclinB1 kinase activity was analyzed in a 96-well flashplate assay using 2.0 μg/well bovine histone H1 as a substrate. Reactions were run in 50 μl with 0.25 μg of CDK1/cyclinB1 complex, in reaction buffer (50 mM HEPES, pH 7.4, 10 mM MgCl2, 0.1 μM ATP, 1 mM DTT and 0.5 μCi of [γ^33-P] ATP (final reaction concentrations)), and SCY (1 nM to 10 μM final reaction concentration). The positive control used was […] hymenialdisine (final concentration) in a final vehicle concentration of 1% DMSO.\nReactions were initiated with the addition of ATP and allowed to proceed for 10 minutes at room temperature. The reactions were stopped by washing the plate five times with 300 μl/well of PBS. The plate was then counted on a Packard Top-Count."}, "[1]": {"tested_on": "tissue myeloperoxidase activity", "experiment": "Myeloperoxidase (MPO) enzyme assay of mouse ear biopsies", "type": "in vivo", "conditions": "topical", "source_text": "To determine neutrophil influx into inflammed tissue region, the following assay may be conducted. Generally, myeloperoxidase (MPO), a neutrophil-specific marker released from primary granules, is indicative of the extravasation of pro-inflammation neutrophils from blood into the skin. Thus, to determine whether a test compound prevents, inhibits, modulates or attenuates inflammation related to an immunogenic inflammatory pathway or neutrophil influx, ear biopsies from treated and untreated mouse ears may be extracted and quantitated according to a modified method of Bradley, P.O., et al. (1982) J. Invest Dermatology 78:206-209, which is herein incorporated by reference. Specifically, ear bores from each treatment group from mouse ear edema assays from part A above were pooled and homogenized in 80 mM sodium phosphate buffer (pH 5.4) comprising 0.5% hexadecyltrimethylammonium bromide in a siliconized glass test tube for 1 minute at 0° C. using a Brinkman Polytron. The mixtures were centrifuged at 10,000×g at 4° C. for 30 minutes. 10 μl samples from each group were then assayed in a 96-well microtiter plate. The assay was initiated by adding 250 μl of o-dianisi-dine/phosphate reagent (0.28 mg of dianisidine added to 1 ml of 50 mM sodium phosphate comprising 0.0015 H2O2) to each well. After a 30 minute incubation at 37° C., the plates were read at 450 nm on a Molecular Devices microplate reader. Diluted control biopsies were utilized to develop a standard curve. Optical density values from drug-treated groups were compared to control groups to determine the % of control values of enzyme activity."}},
  "note": "Read-outs that look alike come from different tables or passages of the source.",
  "data": [
    {"substance": "scytonemin", "values": [
      {"measurement": "reduction of GST-PLK1 activity", "setting": "GST-PLK1; 3 μM SCY", "value": "about 58%"},
      {"measurement": "time dependence of GST-PLK1 inhibition", "setting": "GST-PLK1; 3 μM and 10 μM, preincubation 0, 15, 30, 45 minutes", "value": "not time dependent"},
      {"measurement": "reduction of GST-PLK1 activity", "setting": "GST-PLK1; 10 μM SCY", "value": "about 93%"},
      {"measurement": "IC50", "setting": "GST-PLK1; 10 μM unlabelled ATP, 60 minutes at 37° C., IC50±S.E.M., read-out: IC50 for inhibition of GST-PLK1 phosphorylation of GST-cdc25C", "value": "1.95 ± 0.07", "unit": "µM"},
      {"measurement": "Ki", "setting": "GST-PLK1; ATP competition, read-out: Ki when fitted as an uncompetitive inhibitor", "value": "2.3 ± 1.9", "unit": "µM"},
      {"measurement": "Ki", "setting": "GST-PLK1; ATP competition, read-out: Ki when fitting the data as a competitive inhibitor", "value": "3 ± 1.9", "unit": "µM"},
      {"measurement": "mechanism of inhibition of GST-PLK1", "setting": "GST-PLK1; ATP competition, double-reciprocal plot", "value": "mixed inhibitor"},
      {"measurement": "GST-cdc25C phosphorylation by GST-PLK1 (phosphorimage)", "setting": "GST-PLK1; in the presence of 10 μM SCY", "value": "virtually no phosphorylated GST-cdc25C detectable"},
      {"measurement": "IC50", "setting": "CDK1/cyclinB1", "value": "~3", "unit": "µM"},
      {"measurement": "inhibition of MPO activity", "setting": "[1]; 1 μg scytonemin", "value": "about 19%"},
      {"measurement": "inhibition of MPO activity", "setting": "[1]; 5 μg scytonemin", "value": "~18", "unit": "%"},
      {"measurement": "inhibition of MPO activity", "setting": "[1]; 10 μg scytonemin (fourth dose listed)", "value": "~90", "unit": "%"},
      {"measurement": "inhibition of MPO activity", "setting": "[1]; 10 μg scytonemin (third dose listed)", "value": "~68", "unit": "%"}
    ]}
  ]
}
